Assay results taken from patent US20040254229A1, “Use of glucose uptake enhancer for reducing apoptosis” (SmithKline Beecham p.l.c. and SmithKline Beecham …, priority 1998, published 2004).

Tests used:
[1] = tested on: isolated working hearts from male Wistar rats; assay: Isolated working hearts from normal male Wistar rats: ventricular function, zero-flow ischaemia and re-perfusion; set-up: species or system rat
Description: Test Systems: Male Wistar rats (Charles River; St Aubin lès Elbeuf, France), with a body weight ranging from 260 to 280 g were housed on a 12h/12h light-dark cycle with access to water and standard rat chow ad libitum. An acclimatisation period of at least one week was allowed prior to experiment.
(§1) Perfusion of isolated hearts: Rats were anaesthetized using thiopental sodium (50 mg/kg body weight intraperitoneally). Hearts from normoglycaemic and one-month STZ-induced diabetic rats, were quickly removed and immersed in ice-cold buffer to produce an immediate cessation of contractility. The aorta was dissected free and then mounted onto a cannula attached to a perfusion apparatus. Retrograde perfusion of the heart was started for 10 min by the Langendorff method and then switched to perfusion using the working-heart technique. […] The perfusate was not recirculated. Preload was held at a pressure of 15 cm H2O and afterload, as well as coronary perfusion pressure, were kept constant at 80 cm H2O.
(§2) Aortic and coronary flows ([…]) were measured by timed collection. Cardiac output ([…]) was derived from the sum of the aortic and coronary flows. Stroke volume (ml/beat) was derived by dividing cardiac output by heart rate.
(§3) Induction of global ischaemia and re-perfusion: Total ischaemia was initiated by clamping the left atrium and the aortic perfusion tubes and reducing coronary flow to zero for 30 minutes. The hearts were then re-perfused at 37° C. in working heart mode and recovery of ventricular function was followed for 30 minutes.
(§4) Data Handling & Analysis: The data are presented as the mean±SEM. Statistical significance of differences was determined using Student's t-test. Differences with p<0.05 were considered to be statistically significant.

[2] = tested on: isolated working hearts from STZ-diabetic rats; assay: Isolated working hearts from STZ-diabetic male Wistar rats: ventricular function, zero-flow ischaemia and re-perfusion; set-up: species or system rat
Description: A solution of streptozotocin (STZ commercially available) was prepared in citrate buffer (40 mg/ml).
Induction of experimental diabetes: Male Wistar rats weighing between 300 and 320 g were fasted overnight and made diabetic by a single intravenous injection of STZ, 40 mg/kg body weight. The development of diabetes and its persistence were monitored by serial quantitative measurements of glucose in the urine with reagent strips. On the day of the experiment, the severity of diabetes was assessed by measuring glucose concentrations from blood samples collected at the time of heart excision. Only rats with plasma glucose levels exceeding 20 mM were considered diabetic and included in these experiments.
as §1, §2, §3, §4

[3] = baseline ventricular function, normal male Wistar rats, 1 μM in the perfusate pre-ischaemia, mean±SEM
[4] = baseline ventricular function, STZ-diabetic male Wistar rats, 1 μM in the perfusate pre-ischaemia, n = 6, mean±SEM

CN(CCOc1ccc(CC2SC(=O)NC2=O)cc1)c1ccccn1 (stereo not drawn) [Compound (I), 5-[4-[2-(N-methyl-N-(2-pyridyl)amino)ethoxy]benzyl]thiazolidine-2,4-dione]
Aortic Flow [1, 3]: 34.0 ± 0.7 mL/min
Cardiac Output [1, 3]: 51 ± 1 mL/min
Coronary Flow [1, 3]: 16.6 ± 0.6 mL/min
Heart Rate [1, 3]: 317 ± 15 beats/min
Peak Systolic Pressure [1, 3]: 73 ± 1 mmHg
protective properties in hearts subjected to zero-flow ischaemia in vitro ([1]; normal rat hearts): protective properties of rapid onset
Aortic Flow [2, 4]: 42.3 ± 1.5 mL/min
Cardiac Output [2, 4]: 54.4 ± 1.7 mL/min
Coronary Flow [2, 4]: 12.1 ± 0.4 mL/min
Heart Rate [2, 4]: 225 ± 14 beats/min
Peak Systolic Pressure [2, 4]: 76 ± 2 mmHg
protective properties in hearts subjected to zero-flow ischaemia in vitro ([2]; diabetic rat hearts): protective properties of rapid onset
